Experimental data: patent publication US11944623B2, “Modulators of Kv3 channels to treat pain” (Autifony Therapeutics Limited, priority 2015, dated 2024)

Target: T1, human Kv3.1 channels (Homo sapiens, UniProt P48547)
T1 construct: expressed in transfected cells; host or cells: CHO/Gam/E1A-clone22 (CGE22) cells, transient BacMam transduction
T1 sequence (P48547 1-511): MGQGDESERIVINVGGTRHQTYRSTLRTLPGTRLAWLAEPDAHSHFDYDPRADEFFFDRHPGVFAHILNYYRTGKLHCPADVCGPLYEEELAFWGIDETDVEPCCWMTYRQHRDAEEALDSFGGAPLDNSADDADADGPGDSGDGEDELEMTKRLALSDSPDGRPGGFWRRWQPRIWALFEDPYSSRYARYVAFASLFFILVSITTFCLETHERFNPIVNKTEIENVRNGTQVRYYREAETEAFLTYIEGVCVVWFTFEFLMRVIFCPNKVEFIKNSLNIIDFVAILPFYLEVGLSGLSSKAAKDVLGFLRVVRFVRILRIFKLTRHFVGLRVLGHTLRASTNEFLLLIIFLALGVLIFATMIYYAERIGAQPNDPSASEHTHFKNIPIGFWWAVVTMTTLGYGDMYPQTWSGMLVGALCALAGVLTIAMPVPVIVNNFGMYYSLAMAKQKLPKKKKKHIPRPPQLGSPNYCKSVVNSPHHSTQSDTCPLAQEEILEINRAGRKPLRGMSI
Experiment: hKv3.1 IonWorks Quattro whole-cell current potentiation assay
Format: cell-based
Settings: potency as indicated by an EC50 value
Description: The ability of the compounds of the invention to modulate the voltage-gated potassium channel subtypes Kv3.3/Kv3.2/Kv3.1 may be determined using the following assay. Analogous methods may be used to investigate the ability of the compounds of the invention to modulate other channel subtypes.
To assess compound effects on human Kv3.1 channels (hKv3.1), CHO/Gam/E1A-clone22 alias CGE22 cells were transduced using a hKv3.1 BacMam reagent. This cell line was designed to be an improved CHO-K1-based host for enhanced recombinant protein expression as compared to wild type CHO-K1. The cell line was generated following the transduction of CHO-K1 cells with a BacMam virus expressing the Adenovirus-Gam1 protein and selection with Geneticin-G418, to generate a stable cell line, CHO/Gam-A3. CHO/Gam-A3 cells were transfected with pCDNA3-E1A-Hygro, followed by hygromycin-B selection and FACS sorting to obtain single-cell clones. […]
Experiments were conducted at room temperature using IonWorks Quattro™ planar array electrophysiology technology (Molecular Devices Corp.) with PatchPlate™ PPC. […] Planar electrode hole resistances (Rp) were determined by applying a 10 mV voltage step across each well. […]
Test pulses protocol may be performed in the absence (pre-read) and presence (post-read) of the test compound. […]

Compound: Cc1ccc(Oc2ccc(-n3c(C)n[nH]c3=O)cn2)c2c1OCC21CC1 [Compound 3, 5-methyl-4-{6-[(7-methylspiro[1-benzofuran-3,1′-cyclopropan]-4-yl)oxy]pyridin-3-yl}-2,4-dihydro-3H-1,2,4-triazol-3-one]
- activity between modulation of Kv3.1 and Kv3.2 channels: comparable activity
